Read-outs that look alike come from different tables or passages of the source.
Tested on: HCV 1b_Huh-Luc/Neo-ET cell line persistently expressing a bicistronic genotype 1b replicon in Huh 7 cells
Assay: HCV replicon assay (luciferase readout, 72 h)
Type: cell-based, HCV genotype 1b
Details: Hepatitis C virus
Method: Biological activity of the compounds of the invention was determined using an HCV replicon assay. The HCV 1b_Huh-Luc/Neo-ET cell line persistently expressing a bicistronic genotype 1b replicon in Huh 7 cells was obtained from ReBLikon GMBH. This cell line was used to test compound inhibition using luciferase enzyme activity readout as a measurement of compound inhibition of replicon levels.
On Day 1 (the day after plating), each compound is added in triplicate to the cells. Plates incubated for 72 h prior to running the luciferase assay. Enzyme activity was measured using a Bright-Glo Kit (cat. number E2620) manufactured by Promega Corporation. The following equation was used to generate a percent control value for each compound.
% Control=(Average Compound Value/Average Control)*100
The EC50 value was determined using GraphPad Prism and the following equation:
Y=Bottom+(Top-Bottom)/(1+10̂((LogIC50−X)*HillSlope))
EC50 values of compounds are determined several times in the replicon assay.
Example compounds of the disclosed invention are illustrated in Tables 1-16 attached as appendices. The tables show inhibitory activity of many of the example compounds with respect to HCV 1b. […] The tables further provide mass spectrometry results for the synthesized example compounds.

[1] = Huh-7, 72 h, read-out: Inhibition of HCV genotype 1b
[2] = Huh-7, read-out: Inhibition of HCV genotype 1b

| Structure (SMILES) | EC50 [1] | EC50 [2] |
| --- | --- | --- |
| COC(=O)NC(C)(C)C(=O)N1CCC[C@H]1c1ncc(-c2ccc(C#Cc3ccc4nc([C@@H]5CCCN5C(=O)C(C)(C)NC(=O)OC)[nH]c4c3)cc2)[nH]1 [Compound 1050] | 10 to 999 nM |  |
| COC(=O)N[C@H](C(=O)N[C@@H](C)c1nc2ccc(C#Cc3ccc(-c4cnc([C@@H]5CCCN5C(=O)[C@@H](NC(=O)OC)C(C)C)[nH]4)cc3)cc2[nH]1)C(C)C [Compound 867] | < 1 nM |  |
| COC(=O)N[C@H](C(=O)N1CCC[C@H]1c1nc2ccc3cc(C#Cc4ccc(-c5cnc([C@@H]6CCCN6C(=O)[C@H](NC(=O)OC)c6ccccc6)[nH]5)cc4)ccc3c2[nH]1)C(C)C [Compound 1093] | < 1 nM |  |
| COC(=O)N[C@@H](CC(N)=O)C(=O)N1CCC[C@H]1c1ncc(-c2ccc(C#Cc3ccc4nc([C@@H]5CCCN5C(=O)[C@H](CC(N)=O)NC(=O)OC)[nH]c4c3)cc2)[nH]1 [Compound 1046] | 1 to 9.9 nM |  |
| COC(=O)N[C@@H](C(=O)N1CCC[C@H]1c1ncc(C#Cc2ccc(-c3ccc(-c4cnc([C@@H]5CCCN5C(=O)[C@@H](c5ccccc5)N(C)C)[nH]4)cc3)cc2)[nH]1)c1ccccc1 [Compound 755] | < 1 nM |  |
| COC(=O)N[C@@H](C(=O)N1CCC[C@H]1c1ncc(-c2ccc(C#Cc3ccc(-c4cnc([C@@H]5CCCN5C(=O)[C@H](NC(=O)OC)C(C)C)[nH]4)cc3)cc2)[nH]1)C(C)C [Compound 292] | > 1000 nM |  |
| COC(=O)N[C@H](C(=O)N1CCC[C@H]1c1nc2ccc(C#Cc3ccc4c(ccc5nc([C@@H]6CCCN6C(=O)[C@@H](NC(=O)OC)C6CCOCC6)[nH]c54)c3)cc2[nH]1)C(C)C [Compound 1287] |  | < 1 nM |
| COC(=O)N[C@H](C(=O)N1CCC[C@H]1c1ncc(-c2ccc(C#Cc3ccc4c(ccc5nc([C@@H]6CCCN6C(=O)[C@@H](NC(=O)OC)[C@@H](C)OC)[nH]c54)c3)cc2)[nH]1)C(C)C [Compound 1271] |  | < 1 nM |
| O=C(N[C@@H](C(=O)N1CCC[C@H]1c1ncc(-c2ccc(C#Cc3ccc(-c4cnc([C@@H]5CCCN5C(=O)[C@H](NC(=O)N5CCCCC5)c5ccccc5)[nH]4)cc3)cc2)[nH]1)c1ccccc1)N1CCCCC1 [Compound 250] | < 1 nM |  |
| COC(=O)N[C@H](C(=O)N1CCC[C@H]1c1ncc(-c2ccc(C#Cc3ccc(-c4cnc([C@@H]5CCCN5C(=O)[C@@H](Nc5cccnc5)C(C)C)[nH]4)cc3)cc2)[nH]1)C(C)C [Compound 995] | < 1 nM |  |
| COC(=O)N[C@H](C(=O)N1CCC[C@H]1c1ncc(-c2ccc(C#Cc3ccc4nc([C@@H]5CCCN5)[nH]c4c3)cc2)[nH]1)C(C)C [Compound 1056] | 10 to 999 nM |  |
| COC(=O)N[C@@H](C(=O)N1CCC[C@H]1c1ncc(-c2ccc(C#Cc3ccc(-c4cnc([C@@H]5CCCN5C(=O)[C@H](NC(=O)N5CC[C@H](OC)C5)c5ccccc5)[nH]4)cc3)cc2)[nH]1)c1ccccc1 [Compound 272] | < 1 nM |  |
| CC(C)[C@H](NC(=O)N1CCNCC1)C(=O)N1CCC[C@H]1c1ncc(-c2ccc(C#Cc3ccc(-c4cnc([C@@H]5CCCN5C(=O)[C@@H](NC(=O)N5CCNCC5)C(C)C)[nH]4)cc3)cc2)[nH]1 [Compound 967] | 10 to 999 nM |  |
| CC(C)[C@@H](NC(=O)C1CC1)C(=O)N1CCC[C@H]1C(=O)NCc1ccc(C#Cc2cnc([C@@H]3CCCN3C(=O)[C@H](NC(=O)C3CC3)C(C)C)[nH]2)cc1 [Compound 122] | 1 to 9.9 nM |  |
| O=S(=O)(Cc1ccccc1)N1CCC[C@H]1c1ncc(-c2ccc(C#Cc3ccc4nc([C@@H]5CCCN5S(=O)(=O)Cc5ccccc5)[nH]c4c3)cc2)[nH]1 [Compound 1042] | > 1000 nM |  |
| COC(=O)N[C@@H](C(=O)N(C)[C@@H](C)c1ncc(-c2ccc(C#Cc3ccc(-c4cnc([C@@H]5CCCN5C(=O)[C@H](NC(=O)OC)c5ccccc5)[nH]4)cc3)cc2)[nH]1)c1ccccc1 [Compound 274] | < 1 nM |  |
| COC(=O)N[C@H](C(=O)N1CCC[C@H]1c1ncc(-c2ccc3cc(C#Cc4[nH]c([C@@H]5CCCN5C(=O)[C@@H](NC(=O)OC)[C@@H](C)OC)nc4C(F)(F)F)ccc3c2)[nH]1)[C@@H](C)OC [Compound 1255] |  | < 1 nM |
| COC(=O)N[C@H](C(=O)N1CCC[C@H]1c1ncc(-c2ccc(C#Cc3ccc4nc([C@@H]5CCCN5C(=O)[C@H](NC(=O)OC)C(C)C)[nH]c4c3)cc2)[nH]1)C(C)C [Compound 1054] | < 1 nM |  |
| COC(=O)N[C@@H](C(=O)N1CCC[C@H]1c1ncc(C#Cc2ccc(C#Cc3cnc([C@@H]4CCCN4C(=O)[C@@H](c4ccccc4)N(C)C)[nH]3)cc2)[nH]1)c1ccccc1 [Compound 314] | < 1 nM |  |
| COC(=O)N[C@@H](C(=O)N1CCC[C@H]1c1ncc(-c2ccc(C#Cc3ccc(-c4cnc([C@@H]5CCCN5C(=O)[C@@H](c5ccccc5)N5CCCCC5)[nH]4)cc3)cc2)[nH]1)c1ccccc1 [Compound 188] | < 1 nM |  |

| Structure (SMILES) | EC50 [1] | EC50 [2] |
| --- | --- | --- |
| O=C([C@@H](c1ccccc1)N1CCCC1)N1CCC[C@H]1c1ncc(-c2ccc(C#Cc3ccc(-c4cnc([C@@H]5CCCN5C(=O)[C@@H](c5ccccc5)N5CCCC5)[nH]4)cc3)cc2)[nH]1 [Compound 194] | < 1 nM |  |
| CC(C)(C)OC(=O)NCC(=O)N1CCC[C@H]1c1ncc(C#Cc2ccc(-c3cnc([C@@H]4CCCN4C(=O)CNC(=O)OC(C)(C)C)[nH]3)cc2)[nH]1 [Compound 103] | 10 to 999 nM |  |
| C[C@H](NC(=O)[C@H](NC(=O)OC(C)(C)C)c1ccccc1)c1ncc(-c2ccc(C#Cc3ccc(-c4cnc([C@@H]5CCCN5C(=O)[C@H](NC(=O)OC(C)(C)C)c5ccccc5)[nH]4)cc3)cc2)[nH]1 [Compound 280] | < 1 nM |  |
| O=C(N[C@@H](C(=O)N1CCC[C@H]1c1ncc(-c2ccc(C#Cc3ccc(-c4cnc([C@@H]5CCCN5C(=O)[C@H](NC(=O)C5CC5)c5ccccc5)[nH]4)cc3)cc2)[nH]1)c1ccccc1)C1CC1 [Compound 153] | < 1 nM |  |
| COC(=O)N[C@H](C(=O)N1CCN(C(C)=O)C[C@H]1c1ncc(-c2ccc(C#Cc3ccc4nc([C@@H]5CCCN5C(=O)[C@@H](NC(=O)OC)C(C)C)[nH]c4c3)cc2)[nH]1)C(C)C [Compound 1232] |  | < 1 nM |
| COC(=O)N[C@H](C(=O)N1CCN(C(C)=O)C[C@H]1c1ncc(-c2ccc(C#Cc3ccc4nc([C@@H]5CCCN5C(=O)[C@@H](NC(=O)OC)C5CCOCC5)[nH]c4c3)cc2)[nH]1)C1CCOCC1 [Compound 1234] |  | 1 to 9.9 nM |
| COC(=O)N[C@@H](C(=O)N1CCC[C@H]1c1ncc(C#Cc2ccc(-c3ccc(-c4cnc([C@@H]5CCCN5C(=O)[C@H](NC(=O)C5CC5)c5ccccc5)[nH]4)cc3)cc2)[nH]1)c1ccccc1 [Compound 754] | < 1 nM |  |
| COC(=O)N[C@H](C(=O)N1CCC[C@H]1c1ncc(C#Cc2ccc3cc(C#Cc4cnc([C@@H]5CCCN5C(=O)[C@@H](NC(=O)OC)C(C)C)[nH]4)ccc3c2)[nH]1)C(C)C [Compound 1114] | < 1 nM |  |
| O=C(N[C@@H](C(=O)N1CCC[C@H]1c1ncc(-c2ccc(C#Cc3ccc(-c4cnc([C@@H]5CCCN5C(=O)[C@H](NC(=O)N5CCC(O)CC5)c5ccccc5)[nH]4)cc3)cc2)[nH]1)c1ccccc1)N1CCC(O)CC1 [Compound 251] | < 1 nM |  |
| COC(=O)NC1(C(=O)N2CCC[C@H]2c2ncc(-c3ccc(C#Cc4ccc5nc([C@@H]6CCCN6C(=O)C6(NC(=O)OC)CC6)[nH]c5c4)cc3)[nH]2)CC1 [Compound 1043] | 10 to 999 nM |  |
| COC(=O)N[C@H](C(=O)N1CCC[C@H]1c1ncc(-c2ccc(C#Cc3ccc(-c4cnc([C@@H]5CCCN5C(=O)[C@@H](NC5CCOCC5)C(C)C)[nH]4)cc3)cc2)[nH]1)C(C)C [Compound 1001] | 1 to 9.9 nM |  |
| CNC(=O)N[C@@H](C(=O)N1CCC[C@H]1c1ncc(-c2ccc(C#Cc3ccc(-c4cnc([C@@H]5CCCN5C(=O)[C@H](NC(=O)NC)c5ccccc5)[nH]4)cc3)cc2)[nH]1)c1ccccc1 [Compound 162] | < 1 nM |  |
| COC(=O)N[C@H](C(=O)N1CCOC[C@H]1c1ncc(-c2ccc(C#Cc3ccc4nc([C@@H]5CCCN5C(=O)[C@@H](NC(=O)OC)C(C)C)[nH]c4c3)cc2)[nH]1)C(C)C [Compound 1027] | < 1 nM |  |
| COC(=O)N[C@@H](C(=O)N1CCC[C@H]1c1ncc(-c2ccc(C#Cc3ccc(-c4cnc([C@@H]5CCCN5C(=O)[C@H](NC(=O)N5CC[C@@H](O)C5)c5ccccc5)[nH]4)cc3)cc2)[nH]1)c1ccccc1 [Compound 268] | < 1 nM |  |
| COC(=O)N[C@H](C(=O)N1CCC[C@H]1c1ncc(-c2ccc(C#Cc3ccc(-c4cnc([C@@H]5CCCN5C(=O)[C@@H](NC(=O)OC)C5CCOCC5)[nH]4)cc3)cc2)[nH]1)C1CCOCC1 [Compound 1218] |  | < 1 nM |
| COC(=O)N[C@H](C(=O)N1CCC[C@H]1c1ncc(-c2ccc(C#Cc3ccc(-c4cnc([C@@H]5CCCN5C(=O)[C@@H](NC(=O)OC)C(C)C)[nH]4)cc3C(=O)OC)cc2)[nH]1)C(C)C [Compound 1200] |  | < 1 nM |
| COC(=O)N[C@H](C(=O)N1CCC[C@H]1c1ncc(-c2ccc(C#Cc3ccc4nc([C@@H]5CCCN5C(=O)[C@H](NC(=O)OC)c5ccccc5)[nH]c4c3)cc2)[nH]1)C(C)C [Compound 1023] | < 1 nM |  |
| COC(=O)N[C@H](C(=O)N1CCC[C@H]1c1ncc(-c2ccc(C#Cc3ccc(-c4cnc([C@@H]5CCCN5C(=O)[C@H](NC(=O)N5CCC(O)CC5)c5ccccc5)[nH]4)cc3)cc2)[nH]1)C(C)C [Compound 991] | 1 to 9.9 nM |  |
| C[C@H]1OC(=O)N(C)[C@@H]1C(=O)N1CCC[C@H]1c1ncc(-c2ccc(C#Cc3ccc(-c4cnc([C@@H]5CCCN5C(=O)[C@@H]5[C@@H](C)OC(=O)N5C)[nH]4)cc3)cc2)[nH]1 [Compound 980] | 10 to 999 nM |  |

— US20130296311A1, “INHIBITORS OF HCV NS5A” (PRESIDIO PHARMACEUTICALS, INC., priority 2010, published 2013)
